In ChEMBL document CHEMBL3734684, “Identification and optimisation of a series of tetrahydrobenzotriazoles as metabotropic glutamate receptor 5-selective positive allosteric modulators that improve performance in a preclinical model of cognition” (Bioorg Med Chem Lett, 2015):
≈ marks a conversion by molar mass, not a printed value. Calls of active or inactive are those of the source. The calls are words filed in the database; no cut-off is given here.

Key:
[1] = biological target: T1, Metabotropic glutamate receptor 5 (Homo sapiens, UniProt P41594); test: Positive allosteric modification of human recombinant mGlu5 receptor expressed in U2OS cells assessed as potentiation of glutamate-induced Ca2+ flux in presence of EC20 glutamate; assay type: functional, cell-based
Target sequence in this assay (P41594 whole entry): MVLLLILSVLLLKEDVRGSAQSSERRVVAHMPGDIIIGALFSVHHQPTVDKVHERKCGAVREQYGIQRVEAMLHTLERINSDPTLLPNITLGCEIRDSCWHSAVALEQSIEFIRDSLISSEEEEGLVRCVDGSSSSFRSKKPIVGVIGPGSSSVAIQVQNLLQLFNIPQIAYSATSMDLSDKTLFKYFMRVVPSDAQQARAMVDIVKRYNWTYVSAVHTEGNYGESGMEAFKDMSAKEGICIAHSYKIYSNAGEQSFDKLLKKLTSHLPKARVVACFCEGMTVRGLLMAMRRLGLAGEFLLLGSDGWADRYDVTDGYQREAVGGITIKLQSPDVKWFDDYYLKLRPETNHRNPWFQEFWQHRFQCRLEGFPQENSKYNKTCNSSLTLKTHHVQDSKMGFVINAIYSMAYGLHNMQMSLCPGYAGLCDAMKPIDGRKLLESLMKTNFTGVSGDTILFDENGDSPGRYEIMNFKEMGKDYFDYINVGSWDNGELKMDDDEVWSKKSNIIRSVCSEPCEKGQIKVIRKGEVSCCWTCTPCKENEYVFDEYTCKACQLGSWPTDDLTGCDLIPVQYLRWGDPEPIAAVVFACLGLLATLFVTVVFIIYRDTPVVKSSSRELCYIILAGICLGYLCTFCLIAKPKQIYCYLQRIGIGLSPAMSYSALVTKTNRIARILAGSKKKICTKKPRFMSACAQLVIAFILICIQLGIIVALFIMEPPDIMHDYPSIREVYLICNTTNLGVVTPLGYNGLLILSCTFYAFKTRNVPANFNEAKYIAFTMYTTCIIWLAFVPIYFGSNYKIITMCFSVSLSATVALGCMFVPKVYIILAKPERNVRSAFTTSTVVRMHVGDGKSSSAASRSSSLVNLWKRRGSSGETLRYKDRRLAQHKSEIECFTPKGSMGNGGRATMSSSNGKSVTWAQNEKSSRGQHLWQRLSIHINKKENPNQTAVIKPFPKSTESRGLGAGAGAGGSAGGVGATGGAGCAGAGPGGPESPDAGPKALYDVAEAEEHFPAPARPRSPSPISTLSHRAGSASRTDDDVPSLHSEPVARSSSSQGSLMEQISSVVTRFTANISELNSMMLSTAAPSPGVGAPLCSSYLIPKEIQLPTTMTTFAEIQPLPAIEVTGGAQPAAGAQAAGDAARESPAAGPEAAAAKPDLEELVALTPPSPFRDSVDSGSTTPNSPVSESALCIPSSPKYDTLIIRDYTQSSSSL

[2] = biological target: T1, Metabotropic glutamate receptor 5; test: Positive allosteric modification of human recombinant mGlu5 receptor expressed in U2OS cells assessed as Ca2+ flux upto 25 uM relative to glutamate; assay type: functional, cell-based
Target sequence in this assay (P41594 21-1212 limits assumed): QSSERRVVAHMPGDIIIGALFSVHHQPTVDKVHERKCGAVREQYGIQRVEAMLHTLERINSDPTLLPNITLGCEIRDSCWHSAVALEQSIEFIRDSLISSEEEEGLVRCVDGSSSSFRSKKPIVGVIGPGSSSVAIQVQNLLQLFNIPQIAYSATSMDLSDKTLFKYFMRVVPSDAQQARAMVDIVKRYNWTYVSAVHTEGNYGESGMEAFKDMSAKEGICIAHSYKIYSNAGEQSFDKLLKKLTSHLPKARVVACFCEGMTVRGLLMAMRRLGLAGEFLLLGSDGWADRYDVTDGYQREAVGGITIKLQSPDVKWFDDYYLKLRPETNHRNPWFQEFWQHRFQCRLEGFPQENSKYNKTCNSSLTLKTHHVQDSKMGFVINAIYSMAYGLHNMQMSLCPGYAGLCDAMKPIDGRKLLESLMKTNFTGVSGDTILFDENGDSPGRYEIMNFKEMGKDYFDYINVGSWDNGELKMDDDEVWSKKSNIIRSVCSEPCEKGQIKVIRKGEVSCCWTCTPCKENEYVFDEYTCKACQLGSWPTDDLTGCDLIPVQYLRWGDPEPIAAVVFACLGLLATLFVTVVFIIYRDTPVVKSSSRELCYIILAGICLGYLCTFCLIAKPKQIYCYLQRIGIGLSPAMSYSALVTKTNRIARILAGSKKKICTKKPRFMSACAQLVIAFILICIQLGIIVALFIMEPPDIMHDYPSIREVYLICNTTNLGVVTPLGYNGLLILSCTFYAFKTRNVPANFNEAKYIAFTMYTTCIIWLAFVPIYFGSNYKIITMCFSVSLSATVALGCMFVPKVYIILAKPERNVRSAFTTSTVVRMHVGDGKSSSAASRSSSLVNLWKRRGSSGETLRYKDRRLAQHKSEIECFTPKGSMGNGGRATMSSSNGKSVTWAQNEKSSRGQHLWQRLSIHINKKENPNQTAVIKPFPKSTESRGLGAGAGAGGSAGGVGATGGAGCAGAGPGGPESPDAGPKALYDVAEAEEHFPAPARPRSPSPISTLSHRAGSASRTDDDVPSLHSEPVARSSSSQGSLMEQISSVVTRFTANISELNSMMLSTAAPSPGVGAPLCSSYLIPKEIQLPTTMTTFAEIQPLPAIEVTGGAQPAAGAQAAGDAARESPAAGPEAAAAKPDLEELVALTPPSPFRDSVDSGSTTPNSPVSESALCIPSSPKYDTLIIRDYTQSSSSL

[3] = biological target: Metabotropic glutamate receptor 5 (Rattus norvegicus) (UniProt P31424); test: Positive allosteric modification of mGlu5 receptor in rat cortical astrocytes assessed as maximal leftward shift in the EC50 of glutamate induced response upto 25 uM; assay type: cell-based
Sequence of Metabotropic glutamate receptor 5 (Rattus norvegicus) (P31424 21-1203 limits assumed): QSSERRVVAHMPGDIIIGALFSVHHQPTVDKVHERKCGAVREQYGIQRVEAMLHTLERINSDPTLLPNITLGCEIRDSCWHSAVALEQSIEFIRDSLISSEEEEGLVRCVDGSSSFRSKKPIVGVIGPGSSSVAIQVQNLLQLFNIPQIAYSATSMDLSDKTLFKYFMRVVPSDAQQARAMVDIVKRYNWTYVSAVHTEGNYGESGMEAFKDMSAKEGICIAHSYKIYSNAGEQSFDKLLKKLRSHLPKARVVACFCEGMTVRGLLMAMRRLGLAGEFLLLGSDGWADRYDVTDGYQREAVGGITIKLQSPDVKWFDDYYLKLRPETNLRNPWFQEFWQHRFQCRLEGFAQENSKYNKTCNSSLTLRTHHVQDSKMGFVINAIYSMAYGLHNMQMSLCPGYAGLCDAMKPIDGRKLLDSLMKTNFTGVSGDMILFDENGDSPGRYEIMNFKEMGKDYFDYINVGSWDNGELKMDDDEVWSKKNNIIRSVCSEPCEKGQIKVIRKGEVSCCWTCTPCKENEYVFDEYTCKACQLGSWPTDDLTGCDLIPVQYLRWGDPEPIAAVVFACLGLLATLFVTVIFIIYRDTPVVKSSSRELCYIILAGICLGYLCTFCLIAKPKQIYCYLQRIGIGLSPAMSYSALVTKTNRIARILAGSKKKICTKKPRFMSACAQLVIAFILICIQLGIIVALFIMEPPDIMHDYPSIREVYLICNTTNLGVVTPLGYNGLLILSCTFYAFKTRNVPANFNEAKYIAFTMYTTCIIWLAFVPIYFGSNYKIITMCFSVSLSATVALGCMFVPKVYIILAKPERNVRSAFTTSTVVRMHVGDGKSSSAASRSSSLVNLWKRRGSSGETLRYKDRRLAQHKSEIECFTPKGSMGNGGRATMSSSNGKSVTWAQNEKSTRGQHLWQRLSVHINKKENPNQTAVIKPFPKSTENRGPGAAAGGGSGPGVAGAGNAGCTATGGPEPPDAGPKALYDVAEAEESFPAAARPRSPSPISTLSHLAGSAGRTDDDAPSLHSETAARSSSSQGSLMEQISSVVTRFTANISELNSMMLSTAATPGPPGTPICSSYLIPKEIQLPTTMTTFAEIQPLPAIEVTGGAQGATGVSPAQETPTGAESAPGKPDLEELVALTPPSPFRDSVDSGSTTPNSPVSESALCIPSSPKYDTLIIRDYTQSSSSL

[4] = Intrinsic clearance in rat liver microsomes at 3 uM; assay type: ADME; settings: read-out: CLH
[5] = tested on: MDCK; test: Efflux ratio of permeability from apical to basolateral side to basolateral to apical side in MDCK cells; assay type: ADME, cell-based, Canis lupus familiaris; settings: dog
[6] = Fraction unbound in rat brain; assay type: ADME, tissue-based
[7] = Oral bioavailability in Sprague-Dawley rat at 3 mg/kg; assay type: ADME, organism-based; settings: in vivo
[8] = Cmax in Sprague-Dawley rat plasma at 3 mg/kg, po; assay type: ADME, organism-based; set-up: dose 3 mg/kg, route oral
[9] = Inhibition of CYP450 (unknown origin); assay type: ADME; settings: human
[10] = tested on: Rattus norvegicus; test: Cognitive enhancing effect in po dosed rat measured after 4 hrs by novel object recognition test; assay type: functional; settings: for minimal effective dose: Rattus norvegicus, po, 4 h, read-out: MED
[11] = Half life in Sprague-Dawley rat at 3 mg/kg, po; assay type: ADME, organism-based; settings: in vivo
[12] = Kinetic solubility of compound in phosphate buffer saline at pH 7.4; assay type: physicochemical; settings: for solubility kinetic: phosphate buffered saline, read-out: Kinetic_solubility
[13] = Volume of distribution at steady state in Sprague-Dawley rat at 0.5 mg/kg, iv; assay type: ADME, organism-based; settings: in vivo, read-out: Vdss
[14] = Tmax in Sprague-Dawley rat at 3 mg/kg, po; assay type: ADME, organism-based; settings: in vivo
[15] = species: Homo sapiens; test: Negative allosteric modification of mGlu receptor (unknown origin)
[16] = tested on: MDCK; test: Permeability from apical to basolateral side in MDCK cells at 1 uM; assay type: ADME, cell-based, Canis lupus familiaris; settings: dog
[17] = Intrinsic clearance in human liver microsomes at 3 uM; assay type: ADME; settings: read-out: CLH
[18] = biological target: Voltage-gated inwardly rectifying potassium channel KCNH2 (Homo sapiens, UniProt Q12809); test: Inhibition of human ERG
Sequence of Voltage-gated inwardly rectifying potassium channel KCNH2 (Q12809 whole entry): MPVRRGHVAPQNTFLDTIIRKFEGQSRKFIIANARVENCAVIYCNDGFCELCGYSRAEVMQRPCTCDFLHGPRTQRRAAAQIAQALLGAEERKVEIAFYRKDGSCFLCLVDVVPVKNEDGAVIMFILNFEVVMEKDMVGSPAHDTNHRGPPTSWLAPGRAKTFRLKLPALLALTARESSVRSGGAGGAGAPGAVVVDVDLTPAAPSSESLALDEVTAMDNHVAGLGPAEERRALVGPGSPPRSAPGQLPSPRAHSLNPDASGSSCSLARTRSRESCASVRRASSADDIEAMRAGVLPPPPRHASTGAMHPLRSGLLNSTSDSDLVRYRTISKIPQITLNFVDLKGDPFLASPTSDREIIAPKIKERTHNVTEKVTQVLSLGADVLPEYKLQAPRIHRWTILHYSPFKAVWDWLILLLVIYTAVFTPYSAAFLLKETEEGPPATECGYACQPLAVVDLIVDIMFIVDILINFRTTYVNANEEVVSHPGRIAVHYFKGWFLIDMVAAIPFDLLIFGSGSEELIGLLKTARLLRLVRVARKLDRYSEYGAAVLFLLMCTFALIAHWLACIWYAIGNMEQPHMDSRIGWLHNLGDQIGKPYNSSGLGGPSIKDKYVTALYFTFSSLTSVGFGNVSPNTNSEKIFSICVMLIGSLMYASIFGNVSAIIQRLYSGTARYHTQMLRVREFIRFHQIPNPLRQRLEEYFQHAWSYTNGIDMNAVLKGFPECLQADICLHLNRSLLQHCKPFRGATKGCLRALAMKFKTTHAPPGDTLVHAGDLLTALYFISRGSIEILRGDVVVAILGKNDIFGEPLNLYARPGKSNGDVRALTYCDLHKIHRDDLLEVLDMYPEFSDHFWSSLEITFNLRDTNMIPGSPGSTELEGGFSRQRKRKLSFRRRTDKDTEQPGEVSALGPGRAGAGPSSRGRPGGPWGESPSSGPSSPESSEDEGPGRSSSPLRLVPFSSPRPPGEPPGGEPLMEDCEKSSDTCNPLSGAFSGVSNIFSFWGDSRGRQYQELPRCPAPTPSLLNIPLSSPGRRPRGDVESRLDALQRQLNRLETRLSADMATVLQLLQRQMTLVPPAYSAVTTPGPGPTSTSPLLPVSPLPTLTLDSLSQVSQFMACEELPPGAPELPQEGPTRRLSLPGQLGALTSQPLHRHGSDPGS

[19] = Brain to plasma ratio in Sprague-Dawley rat at 3 mg/kg, po; assay type: ADME, organism-based; settings: brain and plasma, read-out: BPR
[20] = species: Homo sapiens; test: Positive allosteric modification of mGlu receptor (unknown origin)
[21] = species: Homo sapiens; test: Agonist activity at mGlu receptor (unknown origin)
[22] = Clearance in Sprague-Dawley rat at 0.5 mg/kg, iv; assay type: ADME, organism-based; settings: in vivo
[23] = Clearance in Sprague-Dawley rat at 0.25 mg/kg, iv; assay type: ADME, organism-based; settings: in vivo
[24] = Volume of distribution at steady state in Sprague-Dawley rat at 0.25 mg/kg, iv; assay type: ADME, organism-based; settings: in vivo, read-out: Vdss

Cc1ccc(-c2noc(C3CCc4c(nnn4C(C)(C)C)C3)n2)cn1 (racemic)
EC50 [1]: 1580 nM | %max [2]: 67%

CC(C)(C)n1nnc2c1CCC(c1nc(Cc3ccc(F)cc3)no1)C2 (stereo not given)
EC50 [1]: 20 nM | fold change (FC) [3]: 7 | %max [2]: 77% | microsomal CLint at 3 µM [4]: 120 µL/min/mg

Fc1ccc(-c2noc(C3CCc4c(nnn4C4CCCC4)C3)n2)cc1 (stereo in doubt; 10) [listing 1 of 2 here]
EC50 [1]: 398 nM

CC(C)(C)n1nnc2c1CCC(n1cnc(-c3ccc(F)cc3)n1)C2 (stereo not given)
Ratio [5]: 0.8 | EC50 [1]: 50.1 nM | fraction unbound [6]: 0.056 | fold change (FC) [3]: 3 | bioavailability [7]: 114% | Cmax [8]: 1950 nM | inhibition (INH) [9]: Not Active | minimal effective dose [10]: 0.3 mg/kg | half-life [11]: 2.9 h | solubility kinetic [12]: > 100 µM | Vd [13]: 1.9 L/kg | Tmax [14]: 2.7 h | Activity [15]: inactive | permeability [16]: 46 ×10⁻⁶ cm/s | %max [2]: 80% | microsomal CLint at 3 µM [4]: 20 µL/min/mg | microsomal CLint at 3 µM [17]: 4 µL/min/mg | IC50 [18]: 6310 nM | Kp [19]: 1.4 | Activity [20]: inactive | Activity [21]: inactive | clearance [22]: 14 mL/min/kg

CC(C)(C)n1nnc2c1CCC(c1nc(-c3ccc(F)cc3)no1)C2 (stereo not given)
Ratio [5]: 0.8 | EC50 [1]: 5.01 nM | fraction unbound [6]: 0.013 | fold change (FC) [3]: 4 | bioavailability [7]: 46% | Cmax [8]: 438 nM | inhibition (INH) [9]: Not Active | minimal effective dose [10]: 0.3 mg/kg | half-life [11]: 6.5 h | solubility kinetic [12]: 6 µM (≈ 2.05 µg/mL) | Vd [13]: 4.3 L/kg | Tmax [14]: 4 h | Activity [15]: inactive | permeability [16]: 42 ×10⁻⁶ cm/s | %max [2]: 98% | microsomal CLint at 3 µM [4]: 20 µL/min/mg | microsomal CLint at 3 µM [17]: 18 µL/min/mg | Kp [19]: 2 | Activity [20]: inactive | Activity [21]: inactive | clearance [22]: 11 mL/min/kg

CC(C)(C)n1nnc2c1CCC(c1nc(-c3ccc(C#N)cc3)no1)C2 (stereo not given)
EC50 [1]: 79.4 nM | fold change (FC) [3]: 6 | %max [2]: 87%

CC1(n2nnc3c2CCC(c2nc(-c4ccc(F)cc4)no2)C3)CCOCC1 (stereo not given)
EC50 [1]: 10 nM | fold change (FC) [3]: 7 | %max [2]: 103%

Fc1ccc(-c2noc(C3CCc4c(nnn4C4CCCC4)C3)n2)cc1 (stereo in doubt; 9) [listing 1 of 2 here]
EC50 [1]: 31.6 nM | microsomal CLint at 3 µM [4]: 146 µL/min/mg

CC(C)(C#N)n1nnc2c1CCC(c1nc(-c3ccc(F)cc3)no1)C2 (stereo not given)
Ratio [5]: 0.6 | EC50 [1]: 15.8 nM | fraction unbound [6]: 0.015 | fold change (FC) [3]: 3 | bioavailability [7]: 45% | Cmax [8]: 891 nM | inhibition (INH) [9]: Not Active | LED [10]: 0.03 mg/kg | half-life [11]: 7 h | solubility kinetic [12]: 5.6 µM (≈ 1.97 µg/mL) | Tmax [14]: 6 h | clearance [23]: 4 mL/min/kg | Activity [15]: inactive | permeability [16]: 43 ×10⁻⁶ cm/s | %max [2]: 71% | microsomal CLint at 3 µM [4]: 6 µL/min/mg | Vd [24]: 2.5 L/kg | microsomal CLint at 3 µM [17]: 9 µL/min/mg | Kp [19]: 3.2 | Activity [20]: inactive | Activity [21]: inactive

CC(C)(C)n1nnc2c1CCC(c1nc(N3CCOCC3)no1)C2 (racemic)
EC50 [1]: 1260 nM | %max [2]: 29%

CC(C)(C)n1nnc2c1CCC(c1noc(-c3ccc(F)cc3)n1)C2 (stereo not given)
EC50 [1]: 5.01 nM | fold change (FC) [3]: 5 | %max [2]: 85%

Fc1ccc(-c2noc(C3CCc4c(nnn4C4CCCC4)C3)n2)cc1 (stereo in doubt; 10) [listing 2 of 2 here]
fold change (FC) [3]: 4 | %max [2]: 78%

CC(C)(C)Cn1nnc2c1CCC(c1nc(-c3ccc(F)cc3)no1)C2 (stereo not given)
EC50 [1]: 31.6 nM | fold change (FC) [3]: 8 | %max [2]: 108%

Fc1ccc(-c2nc(-c3ccc4c(c3)nnn4C3CCCC3)no2)cc1
EC50 [1]: 398 nM | %max [2]: 51%

Fc1ccc(-c2noc(C3CCc4c(nnn4-c4ccc(F)nc4)C3)n2)cc1 (stereo not given)
EC50 [1]: > 25100 nM

CC(C)Cc1noc(C2CCc3c(nnn3C(C)(C)C)C2)n1 (racemic)
EC50 [1]: 1000 nM | %max [2]: 66%

CC(C)(C)n1nnc2c1CCC(c1nc(C3CCCCC3)no1)C2 (racemic)
EC50 [1]: 200 nM | %max [2]: 91%

CN(C)c1ccc(-c2noc(C3CCc4c(nnn4C(C)(C)C)C3)n2)cc1 (racemic)
EC50 [1]: 1000 nM | %max [2]: 68%

Fc1ccc(-c2noc(C3CCc4c(nnn4C4CCOC4)C3)n2)cc1 (stereo not given)
EC50 [1]: 398 nM | fold change (FC) [3]: 4 | %max [2]: 96% | microsomal CLint at 3 µM [4]: 22 µL/min/mg

Fc1ccc(-c2noc(C3CCc4c(nnn4-c4ccc(F)cc4)C3)n2)cc1 (stereo not given)
EC50 [1]: 15.8 nM | fraction unbound [6]: 0.003 | fold change (FC) [3]: 3 | Kinetic_solubility ([12]; buffer): Insoluble | %max [2]: 106%

CN1CCC(n2nnc3c2CCC(c2nc(-c4ccc(F)cc4)no2)C3)CC1 (racemic)
EC50 [1]: 3980 nM | %max [2]: 91%

Fc1ccc(-c2noc(C3CCc4c(nnn4C4CCCC4)C3)n2)cc1 (stereo in doubt; 9) [listing 2 of 2 here]
fold change (FC) [3]: 10 | %max [2]: 103%

CC(C)(C)n1nnc2c1CCC(c1nnc(-c3ccc(F)cc3)o1)C2 (racemic)
EC50 [1]: 3160 nM | %max [2]: 53%

CC(C)n1nnc2c1CCC(c1nc(-c3ccc(F)cc3)no1)C2 (racemic)
EC50 [1]: 398 nM | %max [2]: 98%
